Data on 2 molecules can be found in publication PMC6856130, “Disrupting coupling within mycobacterial F-ATP synthases subunit ε causes dysregulated energy production and cell wall biosynthesis” (Scientific Reports, 2019).

The target of experiment [1] is F-ATP synthase (subunit c) (Mycobacterium tuberculosis, UniProt A1KI93). The format is biochemical.
Experiment [2] concerns the target T1, F-ATP synthase (subunit ε) (Mycolicibacterium smegmatis, UniProt A0R1Z9).
T1 construct: gene atpC
Put plainly: NADH-driven ATP synthesis of inverted membrane vesicles. The format is biochemical.

Experiment [3] deals with T2, Mtε (F-ATP synthase subunit ε) (Mycobacterium tuberculosis, UniProt P9WPV1).
T2 construct: gene atpC; recombinant Mtε, 121 residues (N-terminal domain M1-E87, C-terminal domain I90-D121), 15N-labeled
T2 sequence (P9WPV1 whole entry, the tested form may be a part): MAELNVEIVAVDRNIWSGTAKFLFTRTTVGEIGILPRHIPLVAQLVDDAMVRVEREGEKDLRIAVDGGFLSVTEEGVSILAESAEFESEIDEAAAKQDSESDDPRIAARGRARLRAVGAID
The format is binding.

Experiment [4] concerns the target F-ATP synthase (subunit ε) (Mycobacterium tuberculosis, UniProt A1KI99). The format is biochemical.

F-ATP synthase (subunit ε) (Mycobacterium tuberculosis, UniProt A1KI99), sequence (A1KI99 whole entry): as the sequence (P9WPV1 whole entry, the tested form may be a part) above
F-ATP synthase (subunit ε) (Mycobacterium tuberculosis, UniProt A1KI99), sequence (A1KI96 whole entry partner): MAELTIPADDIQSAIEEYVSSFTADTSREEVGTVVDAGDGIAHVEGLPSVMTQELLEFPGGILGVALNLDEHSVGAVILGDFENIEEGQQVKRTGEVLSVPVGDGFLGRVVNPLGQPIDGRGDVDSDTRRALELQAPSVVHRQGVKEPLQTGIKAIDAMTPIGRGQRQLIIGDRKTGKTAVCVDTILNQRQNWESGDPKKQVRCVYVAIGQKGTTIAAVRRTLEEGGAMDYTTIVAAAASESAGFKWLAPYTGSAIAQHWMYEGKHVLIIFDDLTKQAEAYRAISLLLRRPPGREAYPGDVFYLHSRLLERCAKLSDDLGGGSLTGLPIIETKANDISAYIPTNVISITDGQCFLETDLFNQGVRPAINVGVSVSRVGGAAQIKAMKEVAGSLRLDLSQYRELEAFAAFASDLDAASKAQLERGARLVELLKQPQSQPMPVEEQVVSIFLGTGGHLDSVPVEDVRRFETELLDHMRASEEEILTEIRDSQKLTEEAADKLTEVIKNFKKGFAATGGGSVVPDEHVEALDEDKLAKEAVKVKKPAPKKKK
F-ATP synthase (subunit ε) (Mycobacterium tuberculosis, UniProt A1KI99), sequence (A1KI98 whole entry partner): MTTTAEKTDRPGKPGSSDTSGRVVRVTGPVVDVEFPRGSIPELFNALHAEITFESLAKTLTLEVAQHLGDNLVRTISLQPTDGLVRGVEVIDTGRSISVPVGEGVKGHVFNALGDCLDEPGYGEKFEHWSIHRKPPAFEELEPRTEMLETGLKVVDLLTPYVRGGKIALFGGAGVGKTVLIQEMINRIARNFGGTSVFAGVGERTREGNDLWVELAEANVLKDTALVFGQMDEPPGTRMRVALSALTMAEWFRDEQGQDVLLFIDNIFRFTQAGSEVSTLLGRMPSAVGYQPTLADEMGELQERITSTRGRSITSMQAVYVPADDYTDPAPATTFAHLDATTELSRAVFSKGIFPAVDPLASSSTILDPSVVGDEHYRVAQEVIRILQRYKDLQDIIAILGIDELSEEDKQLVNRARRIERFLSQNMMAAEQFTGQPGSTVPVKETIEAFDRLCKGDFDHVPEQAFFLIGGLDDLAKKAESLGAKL
F-ATP synthase (subunit ε) (Mycobacterium tuberculosis, UniProt A1KI99), sequence (A1KI97 whole entry partner): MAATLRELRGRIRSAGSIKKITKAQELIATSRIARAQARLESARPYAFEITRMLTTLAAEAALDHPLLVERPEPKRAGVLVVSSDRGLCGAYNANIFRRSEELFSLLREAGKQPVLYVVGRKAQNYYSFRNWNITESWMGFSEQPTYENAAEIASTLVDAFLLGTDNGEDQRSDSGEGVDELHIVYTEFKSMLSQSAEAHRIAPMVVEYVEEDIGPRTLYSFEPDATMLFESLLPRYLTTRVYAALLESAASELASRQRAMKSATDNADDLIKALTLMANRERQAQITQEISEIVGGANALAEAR
F-ATP synthase (subunit ε) (Mycobacterium tuberculosis, UniProt A1KI99), sequence (A1KI93 whole entry partner): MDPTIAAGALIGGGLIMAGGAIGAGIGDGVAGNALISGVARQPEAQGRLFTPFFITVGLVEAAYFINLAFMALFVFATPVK
F-ATP synthase (subunit c), sequence (A1KI93 whole entry): as the sequence (A1KI93 whole entry partner) above
F-ATP synthase (subunit c), sequence (A1KI99 whole entry partner): as the sequence (P9WPV1 whole entry, the tested form may be a part) above
F-ATP synthase (subunit c), sequence (A1KI96 whole entry partner): as the sequence (A1KI96 whole entry partner) above
F-ATP synthase (subunit c), sequence (A1KI98 whole entry partner): as the sequence (A1KI98 whole entry partner) above

Broadly, the IC50 is the midpoint of a concentration-inhibition curve. A low value points to greater potency. As to `COc1nc2ccc(Br)cc2cc1[C@@H](c1ccccc1)[C@@](O)(CCN(C)C)c1cccc2ccccc12` [bedaquiline], in experiment [1], the IC50 was 7.05 ± 1.32 nM.

Regarding `O=C(O[C@@H]1Cc2c(O)cc(O)cc2O[C@@H]1c1cc(O)c(O)c(O)c1)c1cc(O)c(O)c(O)c1` [epigallocatechin gallate], the IC50 was determined as 155.6 ± 1.2 nM in experiment [2] and 2200 ± 300 nM in experiment [4]. Moreover, the “1H-15N HSQC NMR titration, Mtε:EGCG 1:2” value in experiment [3] was “gradual line broadening with increasing molar ratios were observed, which demonstrate binding of EGCG with Mtε”.
